According to BindingDB's records for PubMed 33592144 (Merck, 2021):
pIC50: −log10 of the molar value.

What follows are molecules tested against Proprotein convertase subtilisin/kexin type 9 (Homo sapiens, UniProt Q8NBP7) (assay: Inhibition of human C-terminal V5 epitope tagged PCSK9 by luciferase reporter assay).
`O=C(c1ccc(-n2nnc3ccccc32)cc1)N(c1ncccc1Cl)[C@@H]1CCCNC1` was tested, and the pIC50 was 6.52.
In the case of `O=C(c1ccc(-c2cnn3cccnc23)cc1)N(c1ncccc1Cl)[C@@H]1CCCNC1` [US9227956, 2], the pIC50 was 6.52.
`COc1ccc(CCC(=O)N(c2nccc3ccccc23)[C@@H]2CCCNC2)cc1` gave a pIC50 of 5.35.
